Assay results reported in paper PMC8861050, “Design, synthesis and evaluation of novel 2-oxoindoline-based acetohydrazides as antitumor agents” (Scientific Reports, 2022).

Key:
U937 cells = assay: Annexin V-FITC/PI apoptosis assay; format: cell-based, human; conditions: U937, 50 µM, 24 h
Experimental: The Annexin V-FITC/PI dual staining assay was used to determine the percentage of apoptotic cells. U937 cells (5 × 10^5/mL per well) were plated in 6-well culture plates and allowed to grow for 24 h. In our first experiment, we examined the effects of 4f, 4h, 4n, 4o, 4p, and PAC-1 on apoptosis at 50 µM. In the second experiment, we examined the dose-dependent effect of 4o at 5, 10, and 30 µM and PAC-1 at 30 µM on apoptosis. The cells were treated with compounds for 24 h, and then harvested. The harvested cells were washed twice with ice-cold PBS and incubated in the dark at room temperature in […] of 1 × binding buffer containing 1 µL Annexin V-FITC and […] PI. After 15 min incubation, cells were analyzed for percentage undergoing apoptosis using a FACScalibur flow cytometer (BD Biosciences). The data were processed using Cell Quest Pro software (BD Biosciences).
Figure 5 Apoptosis (Annexin V/PI) analysis of cells after treatment with some compounds. U937 cells were treated with compounds (50 µM) for 24 h. The harvested cells were incubated with Annexin V-FITC and PI and analyzed by using flow cytometry. Ten thousand cells were acquired (n = 3). UN untreated, VH vehicle (DMSO. 0.1%). Representative dot plots (A). Live cells, left down in dot plot. Early apoptotic cells, right down. Necrotic cells, left up, Late apoptotic cells, right up. Bar graph of late apoptotic cells (B). p values were calculated using one-way ANOVA in GraphPad Software (San Diego, CA, USA). *p < 0.01 vs VH control. TEXT PRINTED IN THE PICTURE: (A) PAC-1: 10.40%; 29.30%; 12.70% | (A) 4f: 0.52%; 6.05%; 5.41% | (A) 4h: 0.89%; 13.20%; 7.67% | (A) 4n: 0.44%; 6.83%; 5.73% | (A) 4o: 0.67%; 17.30%; 8.17% | (A) 4p: 1.60%; 13.00%; 5.86% DOUBTS OF THE COPYIST ABOUT THIS PICTURE: The quadrant percentages are in small italic print over the dot plots, so 3, 5, 6, 8 and 9 cannot always be told apart. All values given are best readings. / PAC-1: 10.40%, 29.30% and 12.70% are best readings (29.30 could be 28.30) / 4f: 0.52%, 6.05% and 5.41% are best readings (6.05 could be 6.06 or 8.05) / 4h: 0.89%, 13.20% and 7.67% are best readings (0.89 could be 0.86 or 0.69) / 4n: 0.44%, 6.83% and 5.73% are best readings (6.83 could be 6.63 or 6.88) / 4o: 0.67%, 17.30% and 8.17% are best readings (8.17 could be 6.17) / 4p: 1.60%, 13.00% and 5.86% are best readings (5.86 could be 5.88 or 5.66) / The picture prints no measure for the percentages; only their quadrant position tells them apart. They are listed upper left, upper right, lower right. / The plots UN (0.70%, 2.31%, 3.03%) and VH (1.75%, 2.43%, 3.57%) are controls, not substances, and are left out of the lines.
Figure 6 Apoptosis (Annexin V/PI) analysis of cells after treatment with different concentrations of compound 4o. U937 cells were treated with compound 4o at 5, 10 and 30 µM or PAC-1 (30 µM) for 24 h. The harvested cells were incubated with Annexin V-FITC and PI and analyzed by using flow cytometry. Ten thousand cells were acquired (n = 3). UN untreated, VH vehicle (DMSO. 0.1%). Representative dot plots (A). Live cells, left down in dot plot. Early apoptotic cells, right down. Necrotic cells, left up, Late apoptotic cells, right up. Bar graph of late apoptotic cells (B). p values were calculated using one-way ANOVA in GraphPad Software (San Diego, CA, USA). *p < 0.01 vs VH control.

[1] = Cytotoxicity on normal mesenchymal stem cells; format: cell-based; conditions: human bone marrow-derived mesenchymal stem cells; mean ± SEM; read-out: Cytotoxicity (IC50) MSCs
Experimental: Overally, 5-fluorinated compounds (4i–p and 5d–f) were slightly more cytotoxic than non-fluorinated ones (4a–h, 5a–c). For compounds in series 4a–p, it was observed that, electron-releasing substituents (–OCH3, OH) were generally better than electron-withdrawing groups (–Cl) for cytotoxicity. Especially, compounds with 2-OH substituents produced the best cytotoxicity. The addition of either 4-OCH3 or 3-allyl groups further enhanced cytotoxicity of the related compounds (4g, 4h and 4o, 4p).

[2] = system: U937 human lymphoma cells; assay: Cell cycle analysis (PI, flow cytometry); format: cell-based; conditions: 50 µM, 24 h
Experimental: U937 human lymphoma cells (5 × 10^5/mL per well) were plated in 6-well culture plates and allowed to grow for 24 h. In our first experiment, we examined the effects of 4f, 4h, 4n, 4o, 4p, and PAC-1 on cell cycles at 50 µM. In the second experiment, we examined the dose-dependent effect of 4o at 5, 10, and 30 µM and PAC-1 at 30 µM on cell cycles. The cells were treated with compounds for 24 h, and then harvested. The harvested cells were washed twice with ice-cold PBS, fixed in 75% ice-cold ethanol, and stained with propidium iodide (PI) in the presence of RNase at room temperature for 30 min. The stained cells were analyzed for DNA content using a FACScalibur flow cytometer (BD Biosciences, San Jose, CA, USA) and the data were processed using Cell Quest Pro software (BD Biosciences).
(§1) Figure 3 Cell cycle analysis after treatment with some compounds. U937 human lymphoma cells were treated with compounds (50 µM) for 24 h. The harvested cells were stained with propidium iodide (PI) in the presence of RNase and then were analyzed for DNA content by using flow cytometry. Ten thousand cells were acquired (n = 3). UN untreated, VH vehicle (DMSO. 0.1%). Representative histograms (A) and bar graphs (B) are shown. p values were calculated using one-way ANOVA in GraphPad Software (San Diego, CA, USA). *p < 0.01 vs VH control.
as §1, with “Figure 4” for “Figure 3”, “analysis under” for “analysis after”, “with different concentrations of compound 4o.” for “with some compounds.”, “with compound 4o at 5, 10 and 30 µM or PAC-1 (30” for “with compounds (50”

PC3 (prostate cancer) = assay: SRB cytotoxicity assay, PC3; format: cell-based; conditions: Homo sapiens, 48 h incubation, mean ± SEM of 3 independent experiments
Text: (§2) Three human cancer cell lines: colon cancer (SW620), prostate cancer (PC3), and lung cancer (NCI-H23) were used for sceening the cytotoxicity of the compounds. The cancer cells were purchased from American Type Culture Collection (Manassas, VA, USA). Other reagents/media for cell culture were obtained from GIBCO (Grand Island, New York, USA). The testing cancer cells were culture in Dulbecco’s Modified Eagle Medium until confluence. Then, they were trypsinized and suspended at the level of 3 × 10^4 cells/mL of cell culture medium. On day 0, cancer cells were seeded at a volume of 180 µL/well of 96-well plates and incubated for 24 h at 37 °C in a 5% CO2 incubator. On day 1, 20 µL of various concentrations of testing compounds were added to each well of the 96-well plates. Chemicals were dissolved in dimethyl sulfoxide (DMSO, stock) and diluted in culture medium (1% DMSO) before adding to the culture. After 48 h incubation, the sulforhodamine B assay was used for cell density determination with slight modifications[22]–[26]. The Probits were used for the calculation of IC50 values. The reported IC50 were the averages of three independent screening (SD ≤ 10%)[27].
(§3) Two series of compounds synthesized (4a–p and 5a–f) were evaluated for their cytotoxicity against three human cancer cell lines, including SW620 (colon cancer), PC3 (prostate cancer), NCI-H23 (lung cancer), using SRB method as described previously[22] with slight modifications[23]–[26].

NCI-H23 (lung cancer) = assay: SRB cytotoxicity assay, NCI-H23; format: cell-based; conditions: Homo sapiens, 48 h incubation, mean ± SEM of 3 independent experiments
Text: as §2, §3

SW620 (colon cancer) = assay: SRB cytotoxicity assay, SW620; format: cell-based; conditions: Homo sapiens, SW-620, 48 h incubation, mean ± SEM of 3 independent experiments
Text: as §2, §3

In the case of `O=C(CN1C(=O)Cc2ccccc21)N/N=C/c1ccccc1O` [Compound 4f, (E)-N'-(2-Hydroxybenzylidene)-2-(2-oxoindolin-1-yl)acetohydrazide], the “Induction of apoptosis (Annexin V-FITC/PI)” value (shortened to “Induction of apoptosis”) (U937 cells) is reported as “induced early, and more substantially, late apoptosis”, the melting point is reported as 173 to 174 °C and the IC50 [1] is reported as 23.2 ± 0.26 µM. For the same molecule, the “Effect on cell cycle distribution” value [2] was “accumulated U937 cells in the S phase”, the IC50 (PC3 (prostate cancer)) was 7.34 ± 0.04 µM and the IC50 (NCI-H23 (lung cancer)) was 4.3 ± 0.41 µM. It also gave an IC50 (SW620 (colon cancer)) of 4.77 ± 0.53 µM.
With `C=CCc1cccc(/C=N/NC(=O)CN2C(=O)Cc3ccccc32)c1O` [Compound 4h, (E)-N'-(3-Allyl-2-hydroxybenzylidene)-2-(2-oxoindolin-1-yl)acetohydrazide] the “Apoptotic effects compared among the representative compounds” value (U937 cells) was “more prominent”, the “Induction of apoptosis” value (U937 cells) was “induced early, and more substantially, late apoptosis” and the melting point was 185 to 186 °C. For the same molecule, the IC50 [1] was 15.1 ± 0.93 µM, the “Effect on cell cycle distribution” value [2] was “accumulated U937 cells in the S phase” and the IC50 (PC3 (prostate cancer)) was 5.65 ± 0.19 µM. The IC50 (NCI-H23 (lung cancer)) was 3.05 ± 0.22 µM and the IC50 (SW620 (colon cancer)) was 4.21 ± 0.17 µM.
For `O=C(CN1C(=O)Cc2cc(F)ccc21)N/N=C/c1ccccc1O` [Compound 4n, (E)-N'-(2-Hydroxybenzylidene)-2-(5-fluoro-2-oxoindolin-1-yl)acetohydrazide], the “Induction of apoptosis” value (U937 cells) was “induced early, and more substantially, late apoptosis”, the melting point was 173 to 174 °C and the IC50 [1] was 21 ± 0.51 µM. The “Effect on cell cycle distribution” value [2] was “accumulated U937 cells in the S phase”, the IC50 (PC3 (prostate cancer)) was 5.08 ± 0.26 µM and the IC50 (NCI-H23 (lung cancer)) was 3.7 ± 0.4 µM. For the same molecule, the IC50 (SW620 (colon cancer)) was 4.72 ± 0.75 µM.
In the case of `C=CCc1cccc(/C=N/NC(=O)CN2C(=O)Cc3cc(F)ccc32)c1O` [Compound 4p, (E)-N'-(3-Allyl-2-hydroxybenzylidene)-2-(5-fluoro-2-oxoindolin-1-yl)acetohydrazide], the “Apoptotic effects compared among the representative compounds” value (U937 cells) is reported as “more prominent”, the “Induction of apoptosis” value (U937 cells) is reported as “induced early, and more substantially, late apoptosis” and the melting point is reported as 194 to 195 °C. For the same molecule, the IC50 [1] was 15.7 ± 0.46 µM, the “Effect on cell cycle distribution” value [2] was “accumulated U937 cells in the S phase” and the IC50 (PC3 (prostate cancer)) was 5.11 ± 0.08 µM. The IC50 (NCI-H23 (lung cancer)) was 2.7 ± 0.15 µM and the IC50 (SW620 (colon cancer)) was 3.65 ± 0.23 µM.
